Patent publication US11738031B2, “Compositions and methods for preventing or treating muscle conditions” (The Board of Trustees of the Leland Stanford Junior …, priority 2017, dated 2023)

Tested on: endogenous MuSCs in TA muscle
Experiment: Endogenous MuSC BLI in Pax7CreERT2;Rosa26-LSL-Luc mice after cardiotoxin injury
Assay type: in vivo, mouse
Conditions: 13 nmol three days post-cardiotoxin, BLI days 3-14
Experimental: Bioluminescence imaging: We performed bioluminescence imaging (BLI) using a Xenogen-100 system, as previously described^1,5,6. Briefly, we anesthetized mice using isofluorane inhalation and administered 120 μL D-luciferin (0.1 mmol kg^−1, reconstituted in PBS; Caliper LifeSciences) by intraperitoneal injection. We acquired BLI using a 60 s exposure at F-stop=1.0 at 5 minutes after luciferin injection. Digital images were recorded and analyzed using Living Image software (Caliper LifeSciences). We analyzed images with a consistent region-of-interest (ROI) placed over each hindlimb to calculate a bioluminescence signal. We calculated a bioluminescence signal in radiance (p s^−1 cm^−2 sr^−1) value of 10^4 to define an engraftment threshold. This radiance threshold of 10^4 is approximately equivalent to the total flux threshold in p/s reported previously. This BLI threshold corresponds to the histological detection of one or more GFP+ myofibers^1,5,6. We performed BLI imaging every week after transplantation. […]
We performed bioluminescence imaging (BLI) using a Xenogen-100 system, as previously described (24, 26, 27, 30). […] Digital images were recorded and analyzed using Living Image software (Caliper LifeSciences). We analyzed images with a consistent region-of-interest (ROI) placed over each hindlimb to calculate a bioluminescence signal. We calculated a bioluminescence signal in radiance (p s^−1 cm^−2 sr^−1) value of 10^4 to define an engraftment threshold. […]
Bioluminescent Imaging: For bioluminescence imaging (BLI), we anesthetized mice using isofluorane inhalation and administered 120 μL D-luciferin (0.1 mmol kg^−1, reconstituted in PBS; Caliper LifeSciences) by intraperitoneal injection. […] Digital images were recorded and analyzed using Living Image software (Caliper LifeSciences). We analyzed images with a consistent region-of-interest (ROI) placed over each hindlimb to calculate a bioluminescence signal. We calculated a bioluminescence signal in radiance (p s^−1 cm^−2 sr^−1) value of 10^4 to define an engraftment threshold. […]

CCCCC(C)(C)[C@H](O)/C=C/[C@H]1[C@H](O)CC(=O)[C@@H]1C/C=C\CCCC(=O)O [dmPGE2, 16,16-dimethyl prostaglandin E2]
BLI of endogenous MuSCs after injury and PGE2/dmPGE2: in agreement with the histological data

CCCCC[C@H](O)/C=C/[C@H]1[C@H](O)CC(=O)[C@@H]1C/C=C\CCCC(=O)O [PGE2, prostaglandin E2]
BLI of endogenous MuSCs after injury and PGE2/dmPGE2: in agreement with the histological data
